Values joined by “and” are separate entries in the source; they are usually repeats but may differ in a detail not shown here. Equal entries are not always repeated. Marks after values point to notes of the source that are not given here.
Assays:
[1] = biological target: THP-1 macrophages; assay: Phagocytosis of IgG-opsonized streptavidin beads with or without hCD47 by THP-1 macrophages; type: cell-based, human; conditions: for Ki (minimum hCD47 density to inhibit uptake): IgG-opsonized
Procedure: (§1) The extracellular immunoglobulin-like domains of human CD47 (hCD47) was recombinantly expressed with a spacer domain (Brown et al., 1994, Protein Eng. 7:515-21; Brown et al., 1998, J. Exp. Med. 188:2083-90) plus a C-terminal biotinylation site. […] The beads were opsonized by pretreatment with anti-streptavidin to again induce FcR-mediated phagocytosis (for 45 minutes at 37° C.), and non-engulfed beads were detected with a flourescein anti-Fc against the IgG-opsonin. The number of adherent IgG-opsonized beads per phagocyte was independent of hCD47 (not shown).
For phagocytosis assays, macrophages were plated in 4 cm^2, or 2 cm^2 Lab-Tek II Chambered Coverglass (Nalge Nunc International, Naperville, Ill.) at 1.5×10^5/cm^2. Streptavidin polystyrene beads of different radius: 3.5 μm, 1.1 μm, 160 nm (Spherotech) and 100 nm (Ademtech) were added to macrophages at a ratio of 2:1, 20:1, 277:1, and 2206:1 respectively and incubate at 37° C. for 45 min. […] Non-phagocytosed beads were washed with PBS. Cells were fixed with 5% formaldehyde (Fisher Scientific) for 5 minutes, followed by immediate replacement with PBS. For differentiation of non-internalized beads, beads were labeled with a primary antibody, rabbit anti-streptavidin (Sigma) at 1:1000 in PBS for 20 min at 25° C. A second antibody, anti-rabbit R-PE (Sigma) was added at 1:1000 in PBS to the cells and incubated for an additional 20 minutes at 25° C. Cells were then washed with PBS/0.4% BSA and then quantified by light and fluorescent microscopy. At least 200 cells were scored per well and experiments were repeated at least three times.
For stimulated phagocytosis assays, beads with or without CD47 were incubated with rabbit anti-streptavidin as the IgG opsonin. Beads were opsonized at a concentration 1:1000 for 30 min at 25° C. Opsonized beads were washed 2× and resuspended in 50 μl of PBS/0.4% BSA. Phagocytes were washed with PBS and uningested beads were labeled as described above.
For cytoskeletal involvement at the phagocytic synapse, streptavidin beads opsonized with rabbit anti-streptavidin FITC. Opsonized beads of different sizes were added to THP-1 cells, PMA treated and immediately placed at 4° C. for 10 min to synchronize phagocytosis. […] For studies involving blebbistatin (EMD Biosciences), macrophages were treated for 10 min at 4° C. prior to temperature increase to 37° C. or for 45 min and 37° C. Macrophages treated with DMSO were used to verify no solvent effects.
Beads were opsonized at saturating densities of IgG, and over a 20-fold range of CD47 densities, the number of internalized beads per THP-1 was measured. […] The normal level of CD47 density found on human RBC (Subramanian et al., 2006, Blood 107(6):2548-2556) was indicated by the vertical bars and humans with certain Rhnull phenotypes with reduced levels of CD47 (Mouro-Chanteloup et al., 2003, Blood 101 (1):338-344; Arndt et al., 2004, Br. J. Haematol. 125(3):412-4) was indicated by the vertical bars. The minimum number of CD47 inhibition appears to be consistent across a 30-fold particle size range as depicted by the vertical bars.

[2] = tested on: human peripheral blood monocytes; assay: Phagocytosis of hCD47 beads by human peripheral blood monocytes; type: cell-based; conditions: FIG. 6D
Procedure: FIG. 6, comprising […], illustrates that human-CD47 is sufficient to inhibit phagocytosis. FIG. 6A depicts streptavidin beads coated with both anti-streptavidin IgG as the opsonin and biotinylated human-CD47. Phagocytosis of beads by THP-1 cells was assessed in DIC and fluorescence with non-ingested beads visible with rabbit anti-streptavidin plus a second, goat anti-rabbit antibody. The scale bars are 10 μm. […] Inset bar graph compares to inhibited phagocytosis of uncoated beads after 10 min pretreatment of THP-1 cells with blebbistatin (50 μM). FIG. 6C depicts inhibition of phagocytosis depends on density of human-CD47 on beads. FIG. 6D depicts a bar graph comparing hCD47 inhibition of phagocytosis in peripheral blood monocytes.
as §1, with “shown). […]” for “shown).”

[3] = biological target: THP-1 macrophages; assay: Phagocytosis of IgG-opsonized streptavidin beads with or without hCD47 by THP-1 macrophages; type: cell-based, human; conditions: particle radius 3.4 μm
[4] = tested on: THP-1 macrophages; assay: SHP-1 inhibitor effect on phagocytosis of IgG-opsonized particles by THP-1 macrophages; type: cell-based, human
Procedure: FIG. 16, comprising FIG. 16A-16D, illustrates CD47-SIRPα signaling pathway from SHP-1 to myosin. Phagocytosis of IgG-opsonized particles with or without human CD47 of 100 nm particles (FIG. 16A) and 1.1 μm particles (FIG. 16B) were treated with an SHP-1 inhibitor (NSC-87877) at 62.5 nM and its effects were determined by the ratio of ingested particles per THP-1 phagocyte. The number of particles ingested was shown based on 200 phagocytes counted (n≧3, ±SD). The inset depicts the concentration dependence of NSC-87877 effect on particle uptake. Treatment of blebbistatin in THP-1 macrophages during phagocytosis of IgG-opsonized 100 nm particles (FIG. 16C) and 1.1 μm particles (FIG. 16D) depict inhibition of phagocytosis.
For phagocytosis assays with CD47 attached particles at 100 nm to 1.1 μm diameter were IgG-opsonized. THP-1 macrophage, PMA activated were treated with 0-0.5 μM NSC-87877 an SHP-1 Inhibitor (gift from Frank L. Conlon) 5 minutes prior to the addition of IgG-opsonized particles. Phagocytosis assay occurred at 37° C. for 45 minutes and then fixed for 5 minutes with 5% formaldehyde as described for the phagocytosis assay (Fisher Scientific).
To confirm the correlation between CD47 affect on inhibiting phagocytosis of both nano and micro sized particles, blocked SHP-1 should result in nullifying the CD47 signal. In order to specifically block SHP-1, an inhibitor NSC-87877 was used with a reported high specificity to SHP-1 (Chen et al., 2006, Mol. Pharmacol. 70(2):562-70; Langdon et al., 2007, Development 134(22):4119-30). […] The uptake of these particles was measured as the number of particles ingested per phagocyte.

[5] = biological target: SHP-1 (Homo sapiens, UniProt P29350); conditions: Chen et al., 2006; read-out: reported IC50 for SHP-1; cited from earlier work
Sequence of SHP-1 (P29350 whole entry): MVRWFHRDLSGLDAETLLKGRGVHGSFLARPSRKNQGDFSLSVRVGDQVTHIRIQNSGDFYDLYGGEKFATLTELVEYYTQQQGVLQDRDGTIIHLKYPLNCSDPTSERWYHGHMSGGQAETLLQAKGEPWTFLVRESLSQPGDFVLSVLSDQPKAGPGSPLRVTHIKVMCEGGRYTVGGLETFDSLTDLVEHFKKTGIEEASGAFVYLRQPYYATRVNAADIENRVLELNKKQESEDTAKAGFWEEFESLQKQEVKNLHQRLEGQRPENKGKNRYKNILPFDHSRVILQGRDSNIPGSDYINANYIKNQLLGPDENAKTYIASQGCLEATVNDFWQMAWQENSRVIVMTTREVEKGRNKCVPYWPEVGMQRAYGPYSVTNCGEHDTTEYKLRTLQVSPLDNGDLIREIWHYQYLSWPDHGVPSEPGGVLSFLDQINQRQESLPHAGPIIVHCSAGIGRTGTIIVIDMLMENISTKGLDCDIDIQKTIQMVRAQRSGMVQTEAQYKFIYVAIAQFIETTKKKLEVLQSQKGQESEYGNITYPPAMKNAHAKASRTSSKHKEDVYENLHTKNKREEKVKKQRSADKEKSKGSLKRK

[6] = biological target: human CD47 on human red blood cells (human) (UniProt Q08722); assay: cell-based or functional assay
Sequence of human CD47 on human red blood cells (human) (Q08722 other isoform, or with tags, fused parts or gaps limits assumed): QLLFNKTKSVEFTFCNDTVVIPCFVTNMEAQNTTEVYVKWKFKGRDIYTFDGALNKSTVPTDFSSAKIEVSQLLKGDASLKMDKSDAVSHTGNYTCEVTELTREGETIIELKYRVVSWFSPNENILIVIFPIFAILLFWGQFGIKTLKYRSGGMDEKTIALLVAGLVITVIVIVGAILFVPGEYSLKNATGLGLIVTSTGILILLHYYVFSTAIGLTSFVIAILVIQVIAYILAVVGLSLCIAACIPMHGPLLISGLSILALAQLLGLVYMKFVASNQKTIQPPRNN

[7] = 100 nm particles, NSC-87877 62.5 nM

## hCD47: extracellular immunoglobulin-like domains of human CD47 recombinantly expressed with a spacer domain plus C-terminal biotinylation site, attached to streptavidin-coated beads
[1]; all particle sizes tested, micro to nano-meter beads (100 nm to 3.5 μm)
  effective Ki of phagocytosis inhibition: approximately 20 molecules/μm^2
[1]; all particle sizes tested, micro to nano-meter beads (100 nm to 3.5 μm), listed as human CD47
  effective Ki of phagocytosis inhibition: ~20 molecules/μm^2
[1]; approximately 2.1 μm beads, FIG. 6C
  effective Ki of phagocytosis inhibition: ≈ 20 molecules/μm^2
[1]; beads opsonized at saturating densities of IgG
  Ki at high opsonin: 20 CD47/μm^2
[1]; particle radius 1.1 μm
  Ki (minimum hCD47 density to inhibit uptake): 20* molecules/μm^2
[1]; particle radius 100 nm
  Ki (minimum hCD47 density to inhibit uptake): 19.9 molecules/μm^2
[1]; particle radius 160 nm
  Ki (minimum hCD47 density to inhibit uptake): 13.6 molecules/μm^2
[1]; relative to normal human RBC density
  fraction of normal CD47 densities sufficient to inhibit phagocytosis: 10-20%
[2]
  phagocytosis of beads bearing high densities of hCD47: similarly potent reduction in phagocytosis
[3]
  Ki (minimum hCD47 density to inhibit uptake): 27.6 molecules/μm^2

## O=S(=O)(O)c1ccc2cc(N=Nc3cc(S(=O)(=O)O)c4cccnc4c3O)ccc2c1 [NSC-87877]
[4]; [7]
  particles ingested per phagocyte, beads without hCD47: no statistical difference
  particles ingested per phagocyte, hCD47 particles: an increase of ingested particles
[4]; NSC-87877, FIG. 16B
  uptake of 1.1 μm particles coated with hCD47: increase in uptake comparable to uncoated IgG-opsonized particles
[5]
  IC50: 0.5 µM

## anti-CD47 F(ab')2 generated from monoclonal antibody B6H12
[6]
  phagocytosis of IgG-opsonized human RBCs by human phagocytes after CD47 blocking: 2 fold and 3 fold

From US20110105380A1, “Protection of Nano-Scale Particles from Immune Cell Uptake” (THE TRUSTEES OF THE UNIVERSITY OF PENNSYLVANIA, priority 2009, published 2011)
